Results reported in article PMC6409085, “Three odorant-binding proteins are involved in the behavioral response of Sogatella furcifera to rice plant volatiles” (PeerJ, 2019).
Values joined by “and” are separate entries in the source; they are usually repeats but may differ in a detail not shown here. Equal values may be shown once.

Key:
S. furcifera adults = experiment: Y-tube olfactometer behavioral trials; format: in vivo, Sogatella furcifera; conditions: odorant 50 µL/L vs hexane; adults
Outline: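 Single S. furcifera adults (2 days post-emergence, starved 0.5 h) chose between odorant (100 µL of 50 µL/L on filter paper) and hexane control in a glass Y-tube, charcoal-filtered humidified air 300 mL/min per arm, 25 ± 1 °C, 50% RH. Choice scored if insect passed half an arm and stayed >1 min within 10 min; 45 insects per compound, chi-squared test.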

SfurOBP11 = SfurOBP11 (Sogatella furcifera, UniProt V5T6E3); experiment: biochemical; format: binding
Outline: (§1)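 Fluorescence competitive binding used 2.0 µM SfurOBP and 2.0 µM 1-NPN reporter in 50 mM Tris-HCl, pH 7.4, with odorants at 2-20 µM. Fluorescence was read 2 min after adding the odorant (excitation 337 nm, emission 390-490 nm), in triplicate. Ki was calculated from IC50 as IC50/(1 + [1-NPN]/K1-NPN).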

SfurOBP3 = SfurOBP3 (Sogatella furcifera, UniProt V5T818); experiment: biochemical; format: binding; conditions: for Fluorescence competitive binding assay, fluorescence intensity: OBP3, three replicate columns;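 as to Fluorescence competitive binding assay, fluorescence intensity: competitor odorant at 2 to 20 µM with protein and 1-NPN both 2.0 µM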
Outline: as §1

SfurOBP2 = SfurOBP2 (Sogatella furcifera, UniProt V5T759); experiment: biochemical; format: binding
Outline: as §1

SfurOBP1 = SfurOBP1 (Sogatella furcifera, UniProt V5T8N5); experiment: biochemical; format: binding; conditions: for Fluorescence competitive binding assay, fluorescence intensity: OBP1, three replicate columns
Outline: as §1
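For Fluorescence competitive binding assay, fluorescence intensity in this document: competitor odorant at 2 to 20 µM with protein and 1-NPN both 2.0 µM.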

Chain of SfurOBP3 (V5T818 entry or part of it): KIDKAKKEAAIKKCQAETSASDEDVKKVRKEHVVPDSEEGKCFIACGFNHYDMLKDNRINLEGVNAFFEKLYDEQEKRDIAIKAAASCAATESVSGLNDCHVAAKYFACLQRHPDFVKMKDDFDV
Chain of SfurOBP2 (V5T759 entry or part of it): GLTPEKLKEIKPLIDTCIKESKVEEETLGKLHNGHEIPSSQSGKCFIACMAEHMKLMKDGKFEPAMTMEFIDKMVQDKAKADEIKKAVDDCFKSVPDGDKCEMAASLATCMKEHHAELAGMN
Chain of SfurOBP11 (V5T6E3 entry or part of it): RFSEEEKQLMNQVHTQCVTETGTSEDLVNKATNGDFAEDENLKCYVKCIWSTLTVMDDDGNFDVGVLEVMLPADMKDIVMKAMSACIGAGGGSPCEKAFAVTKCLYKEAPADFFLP
Chain of SfurOBP1 (V5T8N5 entry or part of it): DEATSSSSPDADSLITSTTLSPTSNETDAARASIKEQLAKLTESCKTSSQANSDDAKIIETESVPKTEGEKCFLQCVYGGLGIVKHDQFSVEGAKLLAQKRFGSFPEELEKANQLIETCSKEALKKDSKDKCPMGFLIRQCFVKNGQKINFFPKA

C=C1CC/C=C(\C)CC[C@@H]2[C@@H]1CC2(C)C [β-caryophyllene]
number of insects choosing hexane arm (S. furcifera adults): 15 | number of insects choosing volatilies arm (S. furcifera adults): 16 | number of insects failed (no choice) (S. furcifera adults): 9 | IC50 (SfurOBP11): > 20 µM | Fluorescence intensity, fluorescence competitive binding assay, OBP11 (SfurOBP11; ligand concentration 2, replicate 1): 23970 | Fluorescence intensity, fluorescence competitive binding assay, OBP11 (SfurOBP11; ligand concentration 2, replicate 2): 23335 | Fluorescence intensity, fluorescence competitive binding assay, OBP11 (SfurOBP11; ligand concentration 2, replicate 3): 21938 | Fluorescence intensity, fluorescence competitive binding assay, OBP11 (SfurOBP11; ligand concentration 4, replicate 1): 23122 | Fluorescence intensity, fluorescence competitive binding assay, OBP11 (SfurOBP11; ligand concentration 4, replicate 2): 24566 | Fluorescence intensity, fluorescence competitive binding assay, OBP11 (SfurOBP11; ligand concentration 4, replicate 3): 25482 | Fluorescence intensity, fluorescence competitive binding assay, OBP11 (SfurOBP11; ligand concentration 6, replicate 1): 23526 | Fluorescence intensity, fluorescence competitive binding assay, OBP11 (SfurOBP11; ligand concentration 6, replicate 2): 25770 | Fluorescence intensity, fluorescence competitive binding assay, OBP11 (SfurOBP11; ligand concentration 6, replicate 3): 26267 | Fluorescence intensity, fluorescence competitive binding assay, OBP11 (SfurOBP11; ligand concentration 8, replicate 1): 21931 | Fluorescence intensity, fluorescence competitive binding assay, OBP11 (SfurOBP11; ligand concentration 8, replicate 2): 24474 | Fluorescence intensity, fluorescence competitive binding assay, OBP11 (SfurOBP11; ligand concentration 8, replicate 3): 27203 | Fluorescence intensity, fluorescence competitive binding assay, OBP11 (SfurOBP11; ligand concentration 10, replicate 1): 23853 | Fluorescence intensity, fluorescence competitive binding assay, OBP11 (SfurOBP11; ligand concentration 10, replicate 2): 25460 | Fluorescence intensity, fluorescence competitive binding assay, OBP11 (SfurOBP11; ligand concentration 10, replicate 3): 25443 | Fluorescence intensity, fluorescence competitive binding assay, OBP11 (SfurOBP11; ligand concentration 12, replicate 1): 23639 | Fluorescence intensity, fluorescence competitive binding assay, OBP11 (SfurOBP11; ligand concentration 12, replicate 2): 23490 | Fluorescence intensity, fluorescence competitive binding assay, OBP11 (SfurOBP11; ligand concentration 12, replicate 3): 23358 | Fluorescence intensity, fluorescence competitive binding assay, OBP11 (SfurOBP11; ligand concentration 14, replicate 1): 23808 | Fluorescence intensity, fluorescence competitive binding assay, OBP11 (SfurOBP11; ligand concentration 14, replicate 2): 26534 | Fluorescence intensity, fluorescence competitive binding assay, OBP11 (SfurOBP11; ligand concentration 14, replicate 3): 25924 | Fluorescence intensity, fluorescence competitive binding assay, OBP11 (SfurOBP11; ligand concentration 16, replicate 1): 22662 | Fluorescence intensity, fluorescence competitive binding assay, OBP11 (SfurOBP11; ligand concentration 16, replicate 2): 23024 | Fluorescence intensity, fluorescence competitive binding assay, OBP11 (SfurOBP11; ligand concentration 16, replicate 3): 23415 | Fluorescence intensity, fluorescence competitive binding assay, OBP11 (SfurOBP11; ligand concentration 18, replicate 1): 30250 | Fluorescence intensity, fluorescence competitive binding assay, OBP11 (SfurOBP11; ligand concentration 18, replicate 2): 30294 | Fluorescence intensity, fluorescence competitive binding assay, OBP11 (SfurOBP11; ligand concentration 18, replicate 3): 30235 | Fluorescence intensity, fluorescence competitive binding assay, OBP11 (SfurOBP11; ligand concentration 20, replicate 1): 30296 | Fluorescence intensity, fluorescence competitive binding assay, OBP11 (SfurOBP11; ligand concentration 20, replicate 2): 30444 | Fluorescence intensity, fluorescence competitive binding assay, OBP11 (SfurOBP11; ligand concentration 20, replicate 3): 30224 | IC50 (SfurOBP3): > 20 µM | Fluorescence competitive binding assay, fluorescence intensity (SfurOBP3; ligand concentration 2): 59910 and 62614 and 72673 | Fluorescence competitive binding assay, fluorescence intensity (SfurOBP3; ligand concentration 4): 64089 and 65130 and 67441 | Fluorescence competitive binding assay, fluorescence intensity (SfurOBP3; ligand concentration 6): 62365 and 65722 and 64412 | Fluorescence competitive binding assay, fluorescence intensity (SfurOBP3; ligand concentration 8): 61822 and 63261 and 63413 | Fluorescence competitive binding assay, fluorescence intensity (SfurOBP3; ligand concentration 10): 59908 and 63429 and 67892 | Fluorescence competitive binding assay, fluorescence intensity (SfurOBP3; ligand concentration 12): 56993 and 56771 and 64941 | Fluorescence competitive binding assay, fluorescence intensity (SfurOBP3; ligand concentration 14): 61557 and 60060 and 62301 | Fluorescence competitive binding assay, fluorescence intensity (SfurOBP3; ligand concentration 16): 39308 and 53990 and 51354 | Fluorescence competitive binding assay, fluorescence intensity (SfurOBP3; ligand concentration 18): 76113 and 82456 and 70640 | Fluorescence competitive binding assay, fluorescence intensity (SfurOBP3; ligand concentration 20): 72444 and 66812 and 61866 | IC50 (SfurOBP2): 2.93 µM | Fluorescence competitive binding assay, OBP2 (raw fluorescence reading) (SfurOBP2; ligand concentration 2 (unit not given), replicate column 1 of 3): 11458 | Fluorescence competitive binding assay, OBP2 (raw fluorescence reading) (SfurOBP2; ligand concentration 2 (unit not given), replicate column 2 of 3): 11327 | Fluorescence competitive binding assay, OBP2 (raw fluorescence reading) (SfurOBP2; ligand concentration 2 (unit not given), replicate column 3 of 3): 11281 | Fluorescence competitive binding assay, OBP2 (raw fluorescence reading) (SfurOBP2; ligand concentration 4 (unit not given), replicate column 1 of 3): 12040 | Fluorescence competitive binding assay, OBP2 (raw fluorescence reading) (SfurOBP2; ligand concentration 4 (unit not given), replicate column 2 of 3): 12315 | Fluorescence competitive binding assay, OBP2 (raw fluorescence reading) (SfurOBP2; ligand concentration 4 (unit not given), replicate column 3 of 3): 12582 | Fluorescence competitive binding assay, OBP2 (raw fluorescence reading) (SfurOBP2; ligand concentration 6 (unit not given), replicate column 1 of 3): 13825 | Fluorescence competitive binding assay, OBP2 (raw fluorescence reading) (SfurOBP2; ligand concentration 6 (unit not given), replicate column 2 of 3): 12794 | Fluorescence competitive binding assay, OBP2 (raw fluorescence reading) (SfurOBP2; ligand concentration 6 (unit not given), replicate column 3 of 3): 13738 | Fluorescence competitive binding assay, OBP2 (raw fluorescence reading) (SfurOBP2; ligand concentration 8 (unit not given), replicate column 1 of 3): 13150 | Fluorescence competitive binding assay, OBP2 (raw fluorescence reading) (SfurOBP2; ligand concentration 8 (unit not given), replicate column 2 of 3): 13647 | Fluorescence competitive binding assay, OBP2 (raw fluorescence reading) (SfurOBP2; ligand concentration 8 (unit not given), replicate column 3 of 3): 14723 | Fluorescence competitive binding assay, OBP2 (raw fluorescence reading) (SfurOBP2; ligand concentration 10 (unit not given), replicate column 1 of 3): 16274 | Fluorescence competitive binding assay, OBP2 (raw fluorescence reading) (SfurOBP2; ligand concentration 10 (unit not given), replicate column 2 of 3): 13413 | Fluorescence competitive binding assay, OBP2 (raw fluorescence reading) (SfurOBP2; ligand concentration 10 (unit not given), replicate column 3 of 3): 15514 | Fluorescence competitive binding assay, OBP2 (raw fluorescence reading) (SfurOBP2; ligand concentration 12 (unit not given), replicate column 1 of 3): 16497 | Fluorescence competitive binding assay, OBP2 (raw fluorescence reading) (SfurOBP2; ligand concentration 12 (unit not given), replicate column 2 of 3): 15342 | Fluorescence competitive binding assay, OBP2 (raw fluorescence reading) (SfurOBP2; ligand concentration 12 (unit not given), replicate column 3 of 3): 16204 | Fluorescence competitive binding assay, OBP2 (raw fluorescence reading) (SfurOBP2; ligand concentration 14 (unit not given), replicate column 1 of 3): 16950 | Fluorescence competitive binding assay, OBP2 (raw fluorescence reading) (SfurOBP2; ligand concentration 14 (unit not given), replicate column 2 of 3): 15785 | Fluorescence competitive binding assay, OBP2 (raw fluorescence reading) (SfurOBP2; ligand concentration 14 (unit not given), replicate column 3 of 3): 16267 | Fluorescence competitive binding assay, OBP2 (raw fluorescence reading) (SfurOBP2; ligand concentration 16 (unit not given), replicate column 1 of 3): 16569 | Fluorescence competitive binding assay, OBP2 (raw fluorescence reading) (SfurOBP2; ligand concentration 16 (unit not given), replicate column 2 of 3): 16590 | Fluorescence competitive binding assay, OBP2 (raw fluorescence reading) (SfurOBP2; ligand concentration 16 (unit not given), replicate column 3 of 3): 16267 | Fluorescence competitive binding assay, OBP2 (raw fluorescence reading) (SfurOBP2; ligand concentration 18 (unit not given), replicate column 1 of 3): 20111 | Fluorescence competitive binding assay, OBP2 (raw fluorescence reading) (SfurOBP2; ligand concentration 18 (unit not given), replicate column 2 of 3): 21295 | Fluorescence competitive binding assay, OBP2 (raw fluorescence reading) (SfurOBP2; ligand concentration 18 (unit not given), replicate column 3 of 3): 20566 | Fluorescence competitive binding assay, OBP2 (raw fluorescence reading) (SfurOBP2; ligand concentration 20 (unit not given), replicate column 1 of 3): 21451 | Fluorescence competitive binding assay, OBP2 (raw fluorescence reading) (SfurOBP2; ligand concentration 20 (unit not given), replicate column 2 of 3): 21222 | Fluorescence competitive binding assay, OBP2 (raw fluorescence reading) (SfurOBP2; ligand concentration 20 (unit not given), replicate column 3 of 3): 20042 | IC50 (SfurOBP1): > 20 µM | Fluorescence competitive binding assay, fluorescence intensity (SfurOBP1; ligand concentration 2 (μM)): 5117 and 5425 and 5286 | Fluorescence competitive binding assay, fluorescence intensity (SfurOBP1; ligand concentration 4 (μM)): 6363 and 5644 and 6004 | Fluorescence competitive binding assay, fluorescence intensity (SfurOBP1; ligand concentration 6 (μM)): 6522 and 6380 and 7207 | Fluorescence competitive binding assay, fluorescence intensity (SfurOBP1; ligand concentration 8 (μM)): 6475 and 7284 and 8411 | Fluorescence competitive binding assay, fluorescence intensity (SfurOBP1; ligand concentration 10 (μM)): 6788 and 8986 and 9051 | Fluorescence competitive binding assay, fluorescence intensity (SfurOBP1; ligand concentration 12 (μM)): 7963 and 9385 and 12364 | Fluorescence competitive binding assay, fluorescence intensity (SfurOBP1; ligand concentration 14 (μM)): 10459 and 9678 and 17343 | Fluorescence competitive binding assay, fluorescence intensity (SfurOBP1; ligand concentration 16 (μM)): 9671 and 11754 and 9907 | Fluorescence competitive binding assay, fluorescence intensity (SfurOBP1; ligand concentration 18 (μM)): 16605 and 15288 and 16195 | Fluorescence competitive binding assay, fluorescence intensity (SfurOBP1; ligand concentration 20 (μM)): 15809 and 13061 and 12977
